Test system: E12 mesencephalic precursor cultures
Test: Dopaminergic / neuronal subtype differentiation of expanded mesencephalic precursor cultures (TH+ cell counts by immunohistochemistry)
Assay type: cell-based, rat
Conditions: under both oxygen conditions
Excerpt: Culture of CNS Stem Cells. Animals were housed and treated following NIH guidelines. Cells dissected from rat embryonic lateral ganglionic eminence (E14) or mesencephalon (E12) were mechanically dissociated, plated on plastic 24-well plates (Costar) or 12 mm glass cover slips (Carolina Biologicals) precoated with polyornithine/fibronectin, and grown in defined medium with bFGF (Studer et al., 1998; Johe et al., 1996). In general, bFGF was withdrawn from the medium after 4-6 days of culture. Clonal assays were carried out in plastic 48-well plates (Costar). In some studies, recombinant human (rh)EPO, rhVEGF165 or recombinant mouse (rm)FGF8b, or their neutralizing antibodies (all from R&D Systems) were added to cultures at the following concentrations: EPO 0.5 U/ml, EPO neutralizing antibody 10 μg/ml, FGF8 250 ng/ml, FGF8b neutralizing antibody 5 μg/ml, VEGF 50 ng/ml, VEGF neutralizing antibody 0.5 μg/ml. […]
Immunohistochemistry. […] Appropriate fluorescence-tagged (Jackson Immunoresearch) or biotinylated (Vector Laboratories) secondary antibodies followed by metal-enhanced DAB reaction (Pierce) were used for visualization.
Cell Counts and Statistical Procedures. Uniform random sampling procedures were used for cell counts and quantified using the fractionator technique (Gundersen, et al., 1988). […] Data are expressed as mean±SEM.

sonic hedgehog
effect on expanded mesencephalic precursors (dopaminergic neuron differentiation): no effect

From patent US6610540B1, “Low oxygen culturing of central nervous system progenitor cells” (California Institute of Technology, priority 1998, dated 2003)
